Read-outs that look alike come from different tables or passages of the source.
Key:
[1] = tested on: interleukin-6 induced leukocyte in CSF; assay: interleukin-6 induced white blood cell infiltration into CSF (sepsis model); format: in vivo, dog; conditions: 300, 500, 1000 mg/kg p.o. 30 minutes before interleukin-6; for three days
Text: TNF-α, interleukin-1 and interleukin-6 produced by activated macrophages at the site of the nociceptive stimuli play a particularly important role in mediating acute-phase inflammation as well as sepsis. In fact, proinflammatory cytokines administered to the outside of the blood brain barrier through the chronically in-dwelling intracerebroventricular catheter attached to an Ommaya reservoir increase white blood cell count (characterized by neutrophilic response and lymphocyte respectively) in the cerebrospinal fluid in dogs. The inflammation induced by interleukin-6, was longer lasting (starting from 2 hours, peak time are 10–24 hours lasting 24–72 hours) than that induced by interleukin-1β and TNF-α. In the present studies presented in the Examples hereinbelow, the inflammation caused by interleukin-6 was used as a sepsis model, measuring the amount of infiltrating white blood cells in the cerebrospinal fluid.

[2] = cited from earlier work
[3] = tested on: dextran-induced paw edema; assay: dextran-induced rat paw edema; format: in vivo
Text: Therefore, it was expected that such a mechanism might also come into play at the central nervous system level.

focal cerebral ischemia = conditions: cited from earlier work
[4] = mice, cited from earlier work
[5] = cited from earlier work; remark: listed apart in the source
[6] = tested on: ischemia (occlusion of both carotid arteries); assay: rat ischemia model, reversible 30 minute occlusion of both carotid arteries followed by reperfusion; format: in vivo; conditions: 450 mg/kg i.p. 30 minutes before the occlusion
[7] = rats, cited from earlier work
[8] = tested on: arachidonic acid-induced brain inflammation; assay: brain inflammation induced by arachidonic acid in the subarachnoid space (CSF volume and WBC count in CSF); format: in vivo, rat
Description: Male rats, approximately 350–400 g, were anesthetized with sodium pentobarbital at a dose of 50 mg/kg intraperitoneally (i.p.). Animals were then placed in a stereotaxic unit. Fur from the top of the head to neck was shaved. The study area was disinfected with 70% ethanol followed by a 10% providone-iodine solution. Skin and muscle over the cervical cord were dissected until cervical vertebrae were exposed. A hole was made using a 23G3/4 needle passing through the dura via the cisterna magna. One end of a 2–3 mm PE10 cannula (0.011 “I.D., 0.007” thick, 0.024” O.D., 6.5 cm long) was inserted into the subarachnoid space at the cervical cord so as to avoid damage to neuronal tissue (FIG. 3). The cannula was fixed with cyanoacrylic glue to the peripheral tissue. […] The cannula filled with CSF immediately after the cannulation. Air was infused to inject AA to the subarachnoid space. The muscles and skin were closed with surgical staples. The rat was then removed from the stereotaxic unit and placed on a heat pad and continuously monitored. […] If the effects of the anesthesia appeared to be wearing off, an additional 0.05–0.1 ml pentobarbital (50 mg/ml, i.p.) dose was administered. If at any time during the experiment, the animal appeared to be in pain or distress, the study was immediately stopped and the animal was euthanized. In the present study, the volume (μl) of cerebrospinal fluid (CSF) and white blood cell (WBC) counts in CSF was measured every thirty minutes for 11 hours from the same rat. One side of the cannula (PE10) was inserted into the subarachnoid space under pentobarbital anesthesia, avoiding neuronal damage (FIG. 3). If the brain tissue is damaged, the volume of CSF and WBC increases immediately without the administration of arachidonic acid. Since there are no WBC in the CSF in the normal rat, only rats that had no WBC in the CSF immediately after the cannulation were used. Another side of the cannula remained open and was used for the administration of nociceptive stimuli (arachidonic acid, LPS, dextran, etc.) and subsequently for collecting the CSF every thirty minutes during the experiment. The CSF volume was measured using a micropipette and WBC in the CSF were counted by means of a hemacytometer.

sepsis = conditions: cited from earlier work

O=C(Nc1cccc2c(=O)cc(-c3nnn[nH]3)oc12)c1ccc(OCCCCc2ccccc2)cc1 [pranlukast]
inhibition of interleukin-6 induced leukocyte in CSF [1]: completely inhibited | time the maximum blood concentration was maintained ([2]; 20 mg/kg p.o.): at least 5 hours | time to maximum blood concentration ([2]; 20 mg/kg p.o.): within one hour | pranlukast in blood 24 hours after administration ([2]; low doses (20 mg/kg p.o.)): no pranlukast was observed | inhibition of dextran-induced paw edema ([3]; 450 mg/kg, administered intraperitoneally): completely inhibited | inhibition of dextran-caused paw edema ([3]; 450 mg/kg, administered orally (FIG. 2)): completely inhibited | dose dependence of inhibition of dextran-induced paw edema ([3]; rat, in vivo): dose-dependent fashion | effect on death of brain cells (focal cerebral ischemia; 0.003-1.0 mg/kg i.p. 30 minutes before MCA occlusion and 2 hours after reperfusion, evaluated 24 hours after reperfusion): inhibited the death of brain cells | most effective dose (focal cerebral ischemia; Zhang et al (2002)): 0.1 mg/kg | LD50 ([4]; p.o.): > 2000 mg/kg | LD50 ([4]; s.c.): > 2000 mg/kg | behavior, changes in body weight and food intake compared with control group ([5]; single 30-1000 mg/kg p.o. and repeated 30-1000 mg/kg/day p.o. for three and six months): normal | urine examination and histopathological examinations ([5]; single and repeated administration): normal | survival [6]: One of 4–5 rats survived for one week | LD50 ([7]; p.o.): > 2000 mg/kg | LD50 ([7]; s.c.): > 2000 mg/kg | effect on brain inflammation caused by a large dose of arachidonic acid ([8]; arachidonic acid 6.25 μg/2.0 μl, pranlukast 450 mg/kg p.o.): not inhibited by pranlukast (450 mg/kg; p.o.) but was attenuated | time until white blood cell count returned to normal (=zero) after arachidonic acid ([8]; arachidonic acid 6.25 μg/2.0 μl, pranlukast 450 mg/kg p.o., 5 days without pranlukast): 36 h | inhibition of the increase of CSF volume ([8]; pranlukast 450 mg/kg i.p. thirty minutes before arachidonic acid 3.25 μg/2 μl, n=4): completely inhibited | inhibition of inflammation caused by arachidonic acid ([8]; pranlukast 450 mg/kg i.p., arachidonic acid 3.25 μg/2 μl): completely inhibits

C[C@]12CCC(=O)C=C1CC[C@@H]1[C@@H]2[C@@H](O)C[C@@]2(C)[C@H]1CC[C@]2(O)C(=O)CO [Hydrocortisone]
Effect (sepsis; large dose (100 mg i.v. then 0.18/kg/hr)): none or worse | Effect (sepsis; small dose (100 mg i.v./every 8 hours)): effective

— patent publication US7148248B2, “Method of treating or inhibiting the development of brain inflammation and sepsis” (priority 2002, dated 2006)
